Assay results as given in patent publication US20060205949A1, “Crystalline forms of a biphenyl compound” (THERAVANCE, INC., priority 2005, published 2006).

How the values were obtained:
hM3 receptor (CHO cells) = target: T1, hM3 receptor (CHO cells) (Homo sapiens, UniProt P20309); experiment: Blockade of agonist-mediated calcium release via FLIPR; type: cell-based; settings: CHO cells stably expressing the hM3 receptor, this or a similar assay
T1 construct: expressed in transfected cells
Excerpt: Muscarinic receptor subtypes (M1, M3 and M5 receptors), which couple to Gq proteins, activate the phospholipase C (PLC) pathway upon agonist binding to the receptor. As a result, activated PLC hydrolyzes phosphatyl inositol diphosphate (PIP2) to diacylglycerol (DAG) and […] (IP3), which in turn generates calcium release from intracellular stores, i.e., endoplasmic and sarcoplasmic reticulum. The FLIPR (Molecular Devices, Sunnyvale, Calif.) assay capitalizes on this increase in intracellular calcium by using a calcium sensitive dye (Fluo-4AM, Molecular Probes, Eugene, Oreg.) that fluoresces when free calcium binds. This fluorescence event was measured in real time by the FLIPR, which detected the change in fluorescence from a monolayer of cells cloned with human M1 and M3, and chimpanzee M5 receptors. Antagonist potency was determined by the ability of antagonists to inhibit agonist-mediated increases in intracellular calcium.
For FLIPR calcium stimulation assays, CHO cells stably expressing the hM1, hM3 and cM5 receptors were seeded into 96-well FLIPR plates the night before the assay was done. […]
To determine antagonist potency, the dose-dependent stimulation of intracellular Ca^2+ release for oxotremorine was first determined so that antagonist potency can later be measured against oxotremorine stimulation at an EC90 concentration. […]

[1] = test system: ACh-induced bronchoconstriction; experiment: Duration of bronchoprotection in guinea pig model of acetylcholine-induced bronchoconstriction; type: in vivo; settings: inhalation, 1.5 hours post-dose, expected
Protocol: Groups of six male guinea pigs (Duncan-Hartley (HsdPoc:DH) Harlan, Madison, Wis.) weighing between 250 and 350 g are individually identified by cage cards. Throughout the study animals are allowed access to food and water ad libitum.
Test compounds are administered via inhalation over 10 minutes in a whole-body exposure dosing chamber (R&S Molds, San Carlos, Calif.). The dosing chambers are arranged so that an aerosol was simultaneously delivered to 6 individual chambers from a central manifold. Guinea pigs are exposed to an aerosol of a test compound or vehicle (WFI). […] This is measured gravimetrically by comparing pre-and post-nebulization weights of the filled nebulizer.
The bronchoprotective effects of test compounds administered via inhalation are evaluated using whole body plethysmography at 1.5, 24, 48 and 72 hours post-dose.
Forty-five minutes prior to the start of the pulmonary evaluation, each guinea pig is anesthetized with an intramuscular injection of ketamine (43.75 mg/kg), xylazine (3.50 mg/kg) and acepromazine (1.05 mg/kg). […] The depth of anesthesia is monitored and adjusted if the animal responds to pinching of its paw or if the respiration rate is greater than 100 breaths/minute. […]
Starting this program initiates the experimental protocol and data collection. […] By integrating this signal over time, a measurement of […] is calculated for each breath. […]

T1 sequence (P20309 whole entry): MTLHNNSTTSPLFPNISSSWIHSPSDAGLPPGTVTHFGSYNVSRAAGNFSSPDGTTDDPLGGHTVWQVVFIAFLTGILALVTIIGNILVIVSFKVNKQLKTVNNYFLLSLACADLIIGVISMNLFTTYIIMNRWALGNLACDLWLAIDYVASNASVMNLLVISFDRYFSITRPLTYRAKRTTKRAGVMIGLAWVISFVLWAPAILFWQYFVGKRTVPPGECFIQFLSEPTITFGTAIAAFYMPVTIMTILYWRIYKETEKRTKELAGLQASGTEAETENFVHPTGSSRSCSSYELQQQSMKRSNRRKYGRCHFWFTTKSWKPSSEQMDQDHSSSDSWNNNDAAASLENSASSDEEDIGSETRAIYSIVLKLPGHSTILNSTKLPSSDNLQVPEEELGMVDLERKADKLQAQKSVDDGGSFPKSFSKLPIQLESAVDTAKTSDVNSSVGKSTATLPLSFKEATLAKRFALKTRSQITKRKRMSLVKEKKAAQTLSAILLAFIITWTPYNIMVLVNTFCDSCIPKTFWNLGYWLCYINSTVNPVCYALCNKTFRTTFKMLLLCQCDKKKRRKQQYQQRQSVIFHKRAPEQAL

## O=C(CCN1CCC(OC(=O)Nc2ccccc2-c2ccccc2)CC1)NCCCCCNCc1ccc(O)cc1 [compound of formula I, biphenyl-2-ylcarbamic acid 1-{2-[5-(4-hydroxybenzylamino)pentylcarbamoyl]ethyl}piperidin-4-yl ester]
hM3 receptor (CHO cells)
  Ki: < 10 nM
[1]
  PD2(50) for ACh-induced bronchoconstriction: less than 200 μg/mL
